Experimental data: patent US20260200890A1, “ADAR1 INHIBITORS AND METHODS OF USING THE SAME” (AVAMMUNE THERAPEUTICS INC., priority 2022, published 2026)

Key:
[1] = tested on: A549 p110 KO cells; assay: IFN-β induction in A549 p110 KO cells; format: cell-based, human
[2] = tested on: A549 (p110 KO); assay: Interferon-stimulated gene expression in A549 (p110 KO); format: cell-based, human; conditions: FIG. 2, FIGS. 3A-3D
[3] = molecular target: T1, ADAR1 (Homo sapiens, UniProt P55265); assay: ADAR1 Inhibition Assay (IFN fold-induction, Quanti-Luc luminescence, p110 KO A549 dual cells); format: cell-based; conditions: IFN fold-induction vs DMSO, 24 and 48 h
T1 construct: endogenous in cells; host or cells: p110 KO A549 dual cells
T1 sequence (P55265 1-1226): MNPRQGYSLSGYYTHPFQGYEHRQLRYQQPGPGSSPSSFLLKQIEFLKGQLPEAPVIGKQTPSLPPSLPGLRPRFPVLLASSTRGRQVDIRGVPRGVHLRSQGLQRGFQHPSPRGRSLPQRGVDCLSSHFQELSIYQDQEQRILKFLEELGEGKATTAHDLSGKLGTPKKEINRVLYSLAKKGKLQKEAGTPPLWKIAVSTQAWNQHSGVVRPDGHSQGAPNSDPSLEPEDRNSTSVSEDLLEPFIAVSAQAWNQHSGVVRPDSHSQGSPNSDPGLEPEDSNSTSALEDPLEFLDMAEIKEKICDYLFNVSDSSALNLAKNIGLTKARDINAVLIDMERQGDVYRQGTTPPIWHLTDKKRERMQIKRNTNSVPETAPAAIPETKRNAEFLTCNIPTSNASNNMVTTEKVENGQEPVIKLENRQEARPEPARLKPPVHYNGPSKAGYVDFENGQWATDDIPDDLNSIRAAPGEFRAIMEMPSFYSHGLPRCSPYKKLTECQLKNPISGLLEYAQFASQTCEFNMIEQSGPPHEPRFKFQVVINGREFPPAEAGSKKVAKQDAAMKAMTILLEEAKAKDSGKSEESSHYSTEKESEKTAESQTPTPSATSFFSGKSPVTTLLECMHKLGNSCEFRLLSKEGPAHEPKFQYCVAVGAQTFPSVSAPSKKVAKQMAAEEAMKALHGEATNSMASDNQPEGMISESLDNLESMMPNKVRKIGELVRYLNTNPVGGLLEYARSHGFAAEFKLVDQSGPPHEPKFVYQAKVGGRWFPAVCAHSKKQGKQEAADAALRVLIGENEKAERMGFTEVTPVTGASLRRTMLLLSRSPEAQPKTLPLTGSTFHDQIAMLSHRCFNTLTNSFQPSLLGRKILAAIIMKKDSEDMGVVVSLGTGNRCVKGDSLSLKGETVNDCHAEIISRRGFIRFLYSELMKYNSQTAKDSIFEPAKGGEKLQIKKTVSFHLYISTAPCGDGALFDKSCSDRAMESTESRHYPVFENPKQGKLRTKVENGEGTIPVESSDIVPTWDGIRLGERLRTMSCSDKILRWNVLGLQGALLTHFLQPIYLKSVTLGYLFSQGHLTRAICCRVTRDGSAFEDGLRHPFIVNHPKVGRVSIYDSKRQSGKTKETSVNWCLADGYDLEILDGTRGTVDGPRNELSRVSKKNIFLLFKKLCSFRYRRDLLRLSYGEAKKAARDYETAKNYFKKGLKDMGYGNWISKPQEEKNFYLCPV
Method in brief: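 p110 KO A549 dual cells (20,000/well) in supplemented DMEM, treated next day with compound at 1% final DMSO for 24 and 48 h at 37 °C, 5% CO2. Supernatant luminescence read with Quanti-Luc; IFN fold-induction = sample RLU/mean DMSO RLU, used for EC50.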

[4] = molecular target: T2, Zα domain of ADAR1 p150 (Homo sapiens, UniProt P55265); assay: SPR binding assay; conditions: 6× his tag Zα domain immobilized on CM5 chip, analyte 0-25 μM
T2 construct: 10 μg/ml of Zα domain of ADAR1 was immobilized on CM5 chip using anti-HIS antibody; made in house
T2 sequence (P55265 133-199 limits assumed): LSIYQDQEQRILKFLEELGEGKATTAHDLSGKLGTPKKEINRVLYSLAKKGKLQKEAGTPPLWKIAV
Method in brief: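 His-tagged Zα domain of human ADAR1 p150, bacterially expressed and Ni-NTA purified, was captured at 10 μg/ml on a CM5 chip via anti-His antibody. Analytes ran at 0–25 μM in PBSP + 5% DMSO, 30 μL/min, with 60 s contact and 320 s dissociation. Kd came from curve fitting.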

[5] = tested on: B16F10 tumors; assay: Tumor MDA5, IFN-β and CXCL10 levels in mice with B16F10 tumors; format: in vivo, mouse
Text: (§1) Study: A B16F10 mouse melanoma model was used to evaluate the anti-tumor efficacy of Compound 1, alone or in combination with anti-PD-1 therapy.

[6] = tested on: B16F10 melanoma; assay: B16F10 mouse melanoma model, anti-tumor efficacy; format: in vivo
Text: as §1

[7] = tested on: HCT 116; assay: Interferon-stimulated gene expression in HCT 116; format: cell-based, human; conditions: FIG. 4, FIGS. 5A-5D
[8] = tested on: B16F10; assay: MDA5, IFN-β, CXCL10 levels in murine cancer cell line B16F10; format: cell-based; conditions: FIG. 6, FIGS. 7A-7B
[9] = tested on: WT A549 cells; assay: IFN-β induction in WT A549 cells; format: cell-based, human; conditions: compared to A549 p110 KO cells, FIG. 1B

SMILES: CCOC(=O)c1cc(-c2ccccc2)sc1NC(=O)COC(=O)c1cccc(S(N)(=O)=O)c1 [Compound 1, Ethyl 5-phenyl-2-(2-((3-sulfamoylbenzoyl)oxy)acetamido)thiophene-3-carboxylate]
- IFN-β induction (via ADAR1 inhibition) ([1]; FIG. 1A): dose-dependent IFN-β induction
- IFN-β induction compared to STING agonists cGAMP, ADU-S100, MSA-002 ([1]; FIG. 1C): superior IFN-β induction
- expression of several interferon-stimulated genes (ISGs) [2]: dose-dependent expression
- EC50 [3]: ≤ 25 µM
- Kd [4]: ≤ 1 µM
- tumor MDA5 mRNA levels ([5]; B16F10 melanoma model, FIG. 10): significant increase
- induction of IFN-β and CXCL10 ([5]; B16F10 tumors in mice, FIG. 11A, 11B): increased induction
- tumor growth inhibition (TGI) ([6]; B16F10 mouse melanoma model, FIG. 8): 45%
- tumor weight reduction ([6]; compared to vehicle control, Compound 1 100 μg, FIG. 9): about 60%
- expression of several interferon-stimulated genes (ISGs) [7]: dose-dependent expression
- upregulation of MDA5, IFN-β, and CXCL10 [8]: dose-dependent upregulation
- IFN-β induction [9]: Lower IFN-β induction

SMILES: CCOC(=O)c1cc(-c2ccccc2)sc1NC(=O)CNC(=O)c1cccc(S(N)(=O)=O)c1 [Compound 416]
- EC50 [3]: > 100 µM
- Kd [4]: ≤ 1 µM

SMILES: CCOC(=O)c1nc(-c2ccccc2)oc1NC(=O)COC(=O)c1cccc(P(=O)(O)O)c1 [Compound 418]
- EC50 [3]: > 100 µM
- Kd [4]: > 10 µM

SMILES: CCOC(=O)c1cc(-c2ccccc2)sc1NC(=O)Cn1cc(C(=O)Nc2cccc(P(=O)(O)O)c2)nn1 [Compound 420]
- EC50 [3]: > 100 µM
- Kd [4]: ≤ 1 µM

SMILES: CCOC(=O)c1cc(-c2ccccc2)sc1NC(=O)COC(=O)c1ccc(P(=O)(OCC)OCC)cc1 [Compound 421]
- EC50 [3]: > 100 µM
- Kd [4]: ≤ 1 µM

SMILES: CCOC(=O)c1cc(-c2ccccc2)sc1NC(=O)COC(=O)c1ccc(P(=O)(O)O)cc1 [Compound 424]
- EC50 [3]: > 100 µM
- Kd [4]: ≤ 1 µM

SMILES: CCOC(=O)c1cc(-c2ccccc2)sc1NC(=O)[C@H]1CCN(C(=O)c2cccc(S(N)(=O)=O)c2)C1 [Compound 426]
- EC50 [3]: > 100 µM
- Kd [4]: ≤ 1 µM

SMILES: CCOC(=O)c1cc(-c2ccccc2)sc1NC(=O)Cn1cc(-c2cccc(S(N)(=O)=O)c2)nn1 [Compound 427]
- EC50 [3]: > 100 µM
- Kd [4]: ≤ 1 µM

SMILES: CCOC(=O)c1cc(-c2ccccc2)sc1NC(=O)[C@H]1CCN(C(=O)c2cccc(S(=O)(=O)NC(C)=O)c2)C1 [Compound 428]
- EC50 [3]: > 100 µM
- Kd [4]: ≤ 1 µM
